The source of these data is PMC4860574, “Bafetinib (INNO-406) reverses multidrug resistance by inhibiting the efflux function of ABCB1 and ABCG2 transporters” (Scientific Reports, 2016).

One experiment addresses T1, ABCB1 (Homo sapiens, UniProt P08183).
T1 construct: full length, wild type; cell assays in SW620/Ad300 and HEK/ABCB1
Put plainly: stimulation of vanadate-sensitive ATPase activity in ABCB1 membranes. In kind it is biochemical. As to conditions: read-out: concentration required to obtain 50% of maximal stimulation.

A further experiment deals with T2, ABCG2 (Homo sapiens, UniProt Q9UNQ0).
T2 construct: cell assays in NCI-H460/MX20 and HEK/ABCG2-R482
T2 sequence (Q9UNQ0 1-655): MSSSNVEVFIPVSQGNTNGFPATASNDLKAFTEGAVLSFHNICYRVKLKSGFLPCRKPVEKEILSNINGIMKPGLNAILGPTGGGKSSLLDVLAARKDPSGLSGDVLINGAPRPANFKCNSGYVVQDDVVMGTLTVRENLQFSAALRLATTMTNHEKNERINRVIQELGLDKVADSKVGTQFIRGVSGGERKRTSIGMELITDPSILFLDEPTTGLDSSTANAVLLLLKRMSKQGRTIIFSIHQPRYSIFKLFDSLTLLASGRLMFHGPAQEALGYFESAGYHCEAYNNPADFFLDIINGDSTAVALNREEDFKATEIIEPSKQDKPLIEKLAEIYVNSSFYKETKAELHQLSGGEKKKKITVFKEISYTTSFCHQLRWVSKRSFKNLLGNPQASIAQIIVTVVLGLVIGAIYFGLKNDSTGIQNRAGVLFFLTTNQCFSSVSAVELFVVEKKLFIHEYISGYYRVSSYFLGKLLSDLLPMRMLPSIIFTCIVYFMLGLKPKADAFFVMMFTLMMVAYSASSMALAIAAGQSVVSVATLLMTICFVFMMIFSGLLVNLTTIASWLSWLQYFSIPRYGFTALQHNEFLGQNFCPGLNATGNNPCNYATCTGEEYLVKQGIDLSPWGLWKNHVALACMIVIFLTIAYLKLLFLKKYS
Put plainly: inhibition of vanadate-sensitive ATPase activity in ABCG2 membranes. In kind it is biochemical. As to conditions: read-out: concentration required to obtain 50% of maximal inhibition. From the text:
inhibition of vanadate-sensitive ATPase activity in ABCG2 membranes on ABCG2 | bafetinib inhibited the ATPase activity of ABCG2 in a concentration-dependent manner

T1 sequence (P08183 whole entry): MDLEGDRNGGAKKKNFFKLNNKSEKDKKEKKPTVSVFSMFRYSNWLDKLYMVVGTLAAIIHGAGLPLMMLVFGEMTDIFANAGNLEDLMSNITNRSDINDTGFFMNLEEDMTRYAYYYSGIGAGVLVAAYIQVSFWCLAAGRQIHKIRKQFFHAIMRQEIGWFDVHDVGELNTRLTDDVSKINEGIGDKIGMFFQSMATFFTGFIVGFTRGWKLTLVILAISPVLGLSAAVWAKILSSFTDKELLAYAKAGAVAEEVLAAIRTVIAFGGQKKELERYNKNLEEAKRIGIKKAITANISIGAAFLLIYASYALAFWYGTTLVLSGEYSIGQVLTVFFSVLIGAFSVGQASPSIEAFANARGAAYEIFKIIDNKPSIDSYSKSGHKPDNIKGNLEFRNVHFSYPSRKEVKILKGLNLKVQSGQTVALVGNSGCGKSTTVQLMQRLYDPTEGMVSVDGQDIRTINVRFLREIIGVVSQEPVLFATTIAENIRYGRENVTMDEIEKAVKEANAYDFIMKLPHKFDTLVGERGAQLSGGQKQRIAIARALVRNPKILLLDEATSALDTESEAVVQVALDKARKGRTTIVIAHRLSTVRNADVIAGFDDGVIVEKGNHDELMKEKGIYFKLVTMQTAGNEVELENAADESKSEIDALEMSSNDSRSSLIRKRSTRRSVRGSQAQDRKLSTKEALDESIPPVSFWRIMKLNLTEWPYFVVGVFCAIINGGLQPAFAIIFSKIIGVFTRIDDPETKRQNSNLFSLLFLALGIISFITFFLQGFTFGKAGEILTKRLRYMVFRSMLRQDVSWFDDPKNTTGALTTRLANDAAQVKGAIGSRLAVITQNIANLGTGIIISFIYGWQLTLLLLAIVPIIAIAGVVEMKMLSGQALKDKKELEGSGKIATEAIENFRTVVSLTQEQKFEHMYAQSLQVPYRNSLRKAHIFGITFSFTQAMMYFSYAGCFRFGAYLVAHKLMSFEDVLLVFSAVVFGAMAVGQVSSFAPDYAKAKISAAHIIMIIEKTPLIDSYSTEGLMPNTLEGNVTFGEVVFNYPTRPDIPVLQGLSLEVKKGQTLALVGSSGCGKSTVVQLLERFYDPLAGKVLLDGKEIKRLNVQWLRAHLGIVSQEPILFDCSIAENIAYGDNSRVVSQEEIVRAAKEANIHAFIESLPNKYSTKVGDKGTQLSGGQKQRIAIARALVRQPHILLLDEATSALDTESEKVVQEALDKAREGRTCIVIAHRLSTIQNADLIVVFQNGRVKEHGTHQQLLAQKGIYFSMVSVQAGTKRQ

As for `Cc1ccc(NC(=O)c2ccc(CN3CC[C@H](N(C)C)C3)c(C(F)(F)F)c2)cc1Nc1nccc(-c2cncnc2)n1` [bafetinib], the EC50 on ABCB1 was 640 nM. Moreover, on ABCG2, the IC50 was 2970 nM.
